Patent publication US20090281061A1, “Impaired Alleles of Genes Involved in Metabolic Pathways and Methods for Detecting and Using the Same” (The Regents of the University of California, priority 2008, published 2009)

Tests used:
human MTHFR [1] = assay: Cell-free MTHFR enzyme activity assay in crude yeast extract, with heat treatment at 55° C.; format: biochemical; conditions: crude yeast lysate
human MTHFR [2] = target: T1, human MTHFR (Homo sapiens, UniProt P42898); assay: as above; format: biochemical; conditions: 55° C., 20 m
T1 construct: made in house; host or cells: Saccharomyces cerevisiae fol3Δ met13Δ, GAL1 promoter, crude extract

Substance	cell-free enzyme activity compared with the major allele (human MTHFR [1])	activity retained after heat treatment, of original activity (human MTHFR [2])
E429A: common human MTHFR variant, regulatory domain	benign	–
major allele: the most common human MTHFR allele in the population, expressed in yeast	–	about 30%
R594Q: common human MTHFR variant, regulatory domain	benign	–
